# Molecular target: Acrosin (Homo sapiens, UniProt P10323)
# Assay: Inhibition of acrosin activity in human spermatozoa using N-alpha-benzoyl-DL-arginine para-nitroanilide-HCI as a substrate after 3 hrs by spectrophotometric analysis
# Sequence of Acrosin (P10323 20-42 limits assumed): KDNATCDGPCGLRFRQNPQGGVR
# Sequence of Acrosin (P10323 43-343 limits assumed): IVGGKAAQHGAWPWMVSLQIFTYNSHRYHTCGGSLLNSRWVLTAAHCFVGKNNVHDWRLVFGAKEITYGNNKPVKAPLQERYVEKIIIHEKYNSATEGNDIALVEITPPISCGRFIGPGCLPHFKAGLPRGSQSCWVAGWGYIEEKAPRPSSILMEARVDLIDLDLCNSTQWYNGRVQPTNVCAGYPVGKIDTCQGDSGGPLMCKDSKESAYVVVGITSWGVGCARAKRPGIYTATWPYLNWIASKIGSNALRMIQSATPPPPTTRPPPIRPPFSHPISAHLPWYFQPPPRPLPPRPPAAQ
row,Compound,IC50 [mM]
1,COc1ccc(C(=O)Nc2ccc(S(=O)(=O)N=C(N)N)cc2)cc1,2.21
2,NC(N)=NS(=O)(=O)c1ccc(NC(=O)c2ccc(CCl)cc2)cc1,3.84
3,NC(N)=NS(=O)(=O)c1ccc(NC(=O)c2cccc(C(F)(F)F)c2)cc1,7.05
4,NC(N)=NS(=O)(=O)c1ccc(NC(=O)c2ccccc2Cl)cc1,6.3
5,NC(N)=NS(=O)(=O)c1ccc(NC(=O)c2ccc(Cl)cc2Cl)cc1,5.63
6,Cc1ccc(C(=O)Nc2ccc(S(=O)(=O)N=C(N)N)cc2)cc1,2.06
7,CCc1ccc(C(=O)Nc2ccc(S(=O)(=O)N=C(N)N)cc2)cc1,0.21
8,NC(N)=NS(=O)(=O)c1ccc(NC(=O)COc2ccc(Cl)cc2)cc1,9.35
9,NC(N)=NS(=O)(=O)c1ccc(NC(=O)COc2ccc([N+](=O)[O-])cc2)cc1,4.2
10,NC(N)=NS(=O)(=O)c1ccc(NC(=O)c2c(Cl)cccc2Cl)cc1,5.96
11,Cc1cc(C)c(C(=O)Nc2ccc(S(=O)(=O)N=C(N)N)cc2)c(C)c1,2.45
12,NC(N)=NS(=O)(=O)c1ccc(NC(=O)c2ccccc2Br)cc1,7.63
13,NC(N)=NS(=O)(=O)c1ccc(NC(=O)c2cc([N+](=O)[O-])cc([N+](=O)[O-])c2)cc1,2.5
14,NC(N)=NS(=O)(=O)c1ccc(NC(=O)c2ccc(Cl)c(Cl)c2)cc1,3.8
15,CCOc1ccc(C(=O)Nc2ccc(S(=O)(=O)N=C(N)N)cc2)cc1,0.13
16,NC(N)=NS(=O)(=O)c1ccc(NC(=O)c2c(F)cccc2F)cc1,7.18
17,COC(=O)c1ccc(OC(=O)c2ccc(NC(=N)N)cc2)cc1.CS(=O)(=O)O,0.027
18,NC(N)=NS(=O)(=O)c1ccc(NC(=O)c2ccc(F)cc2)cc1,7.11
19,NC(N)=NS(=O)(=O)c1ccc(NC(=O)c2cccc(Cl)c2)cc1,7

# The next lines start with the values.
row,IC50 [mM],Compound
1,9.84,COc1ccc(OCC(=O)Nc2ccc(S(=O)(=O)N=C(N)N)cc2)cc1
2,4.98,CC1CCN(CC(=O)Nc2ccc(S(=O)(=O)N=C(N)N)cc2)CC1
3,9.9,CC1CCCCN1CC(=O)Nc1ccc(S(=O)(=O)N=C(N)N)cc1 (stereo unspecified)
4,9.5,CCCCOC(=O)C1CCN(CC(=O)Nc2ccc(S(=O)(=O)N=C(N)N)cc2)CC1
5,2.3,NC(N)=NS(=O)(=O)c1ccc(NC(=O)COc2ccccc2)cc1
6,2.35,CC(C)OC(=O)C1CCN(CC(=O)Nc2ccc(S(=O)(=O)N=C(N)N)cc2)CC1
7,8.92,Cc1cccc(OCC(=O)Nc2ccc(S(=O)(=O)N=C(N)N)cc2)c1
8,9.58,CCCC(=O)Nc1ccc(S(=O)(=O)N=C(N)N)cc1
9,2.99,CCOC(=O)C1CCN(CC(=O)Nc2ccc(S(=O)(=O)N=C(N)N)cc2)CC1
10,1.58,CCCCC(=O)Nc1ccc(S(=O)(=O)N=C(N)N)cc1
11,9,CCC(=O)Nc1ccc(S(=O)(=O)N=C(N)N)cc1
12,9.3,COC(=O)C1CCN(CC(=O)Nc2ccc(S(=O)(=O)N=C(N)N)cc2)CC1
13,8.98,Cc1ccc(OCC(=O)Nc2ccc(S(=O)(=O)N=C(N)N)cc2)cc1
14,9.3,Cc1ccccc1OCC(=O)Nc1ccc(S(=O)(=O)N=C(N)N)cc1
15,2.51,CC(C)CCOC(=O)C1CCN(CC(=O)Nc2ccc(S(=O)(=O)N=C(N)N)cc2)CC1
16,3.31,CCCOC(=O)C1CCN(CC(=O)Nc2ccc(S(=O)(=O)N=C(N)N)cc2)CC1
17,7.41,NC(N)=NS(=O)(=O)c1ccc(NC(=O)CN2CCCCC2)cc1

# Reference: ChEMBL document CHEMBL1909542, “Synthesis and acrosin inhibitory activity of substituted 4-amino-N-(diaminomethylene) benzenesulfonamide derivatives” (Bioorg Med Chem Lett, 2011)
